Measurements reported in patent publication EP4737450A1 (Longwood Pharmaceuticals (Hangzhou) Co., Ltd, priority 2023, dated 2025).

Tests used:
FXIa = FXIa (Homo sapiens, UniProt P03951); test: Inhibitory activity against FXIa in vitro (biochemical assay)
How it was run: (§1)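 Compounds were dispensed acoustically from DMSO and tested in duplicate. IC50 values came from nonlinear regression curve fitting.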

plasma kallikrein (PKa) [1] = molecular target: T1, plasma kallikrein (PKa) (Homo sapiens, UniProt P03952); test: PKa inhibition in kaolin-activated human platelet-poor plasma (PPP); assay type: biochemical; conditions: Pro-Phe-Arg-AMC substrate, fluorescence signal
T1 construct: purchased R & D 2497-SE
Experimental: Test Example 2. Evaluation of the compounds of the present invention in terms of PKa Inhibition in Kaolin-Activated Human PPP: Platelet-poor plasma (PPP) obtained from human whole blood, anticoagulated with Na - Citrate, was incubated with various concentrations of the test compounds and 25, 75, 250, or 750 µg/mL kaolin in assay buffer for 20 minutes at 37°C, so that a concentration response of the test compounds was obtained with respect to various kaolin concentrations. The positive drug was diluted in accordance with the reference concentration and diluted 3-fold with the diluent as the first point.
50 nL of compounds were then transferred to a 384 assay plate containing 2 replicates per well. The 384 assay plate was centrifuged at 1000 rpm/min. 2.5 µL of human plasma working solution was added to each assay well. The 384 assay plate was centrifuged at 1000 RPM. 2.5 µL of kaolin working solution was added to each assay well. The 384 assay plate was centrifuged at 1000 RPM and incubated at 25°C for 20 minutes. 5 µL of Pro-Phe-Arg-AMC working solution was added to each assay well. The 384 assay plate was centrifuged at 1000 RPM and incubated at 25°C for 60 minutes. BMG reads the fluorescence signal.
The percent inhibition of the compound was calculated according to the following formula: [formula]

plasma kallikrein (PKa) [2] = molecular target: T1, plasma kallikrein (PKa); test: Inhibitory activity against plasma kallikrein in vitro (fluorescence intensity enzyme assay, Pro-Phe-Arg-AMC substrate); assay type: biochemical; conditions: Pro-Phe-Arg-AMC substrate
How it was run: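 Fluorescence intensity enzyme assay with 10 nM enzyme and 60 µM Pro-Phe-Arg-AMC (final concentrations). Compounds in DMSO, tested in duplicate over a dose series. IC50 from nonlinear regression curve fitting.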

KLK1 = KLK1 (Homo sapiens, UniProt P06870); test: Inhibitory activity against KLK1 in vitro (biochemical assay)
How it was run: as §1

[3] = plasma kallikrein enzyme assay, read-out: PKa IC50
[4] = PKa IC50, plasma kallikrein enzyme assay

T1 sequence (P03952 391-638 limits assumed): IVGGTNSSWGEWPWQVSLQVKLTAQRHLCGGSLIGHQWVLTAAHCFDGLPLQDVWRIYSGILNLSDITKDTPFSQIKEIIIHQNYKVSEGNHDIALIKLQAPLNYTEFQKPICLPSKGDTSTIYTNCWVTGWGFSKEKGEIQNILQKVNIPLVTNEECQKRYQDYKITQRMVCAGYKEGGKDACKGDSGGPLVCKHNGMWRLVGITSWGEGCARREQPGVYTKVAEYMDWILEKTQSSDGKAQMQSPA
T1 sequence (P03952 20-390 partner limits assumed): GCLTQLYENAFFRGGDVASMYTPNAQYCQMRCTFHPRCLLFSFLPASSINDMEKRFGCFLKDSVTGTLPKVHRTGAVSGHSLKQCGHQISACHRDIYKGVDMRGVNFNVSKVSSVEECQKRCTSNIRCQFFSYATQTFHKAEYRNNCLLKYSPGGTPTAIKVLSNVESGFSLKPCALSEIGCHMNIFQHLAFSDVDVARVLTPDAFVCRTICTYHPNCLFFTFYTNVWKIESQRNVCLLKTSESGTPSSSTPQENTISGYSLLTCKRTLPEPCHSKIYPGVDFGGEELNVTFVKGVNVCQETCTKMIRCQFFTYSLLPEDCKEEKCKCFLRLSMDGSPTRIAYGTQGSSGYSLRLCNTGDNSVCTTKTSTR
Chain of FXIa (P03951 388-625 limits assumed): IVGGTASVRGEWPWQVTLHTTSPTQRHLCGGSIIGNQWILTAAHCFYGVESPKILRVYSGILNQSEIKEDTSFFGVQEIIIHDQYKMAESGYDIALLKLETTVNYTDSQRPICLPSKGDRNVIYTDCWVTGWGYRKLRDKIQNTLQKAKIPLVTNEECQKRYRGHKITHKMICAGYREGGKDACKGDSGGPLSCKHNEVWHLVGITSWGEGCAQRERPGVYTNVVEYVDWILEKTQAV
Chain of FXIa (P03951 19-387 partner limits assumed): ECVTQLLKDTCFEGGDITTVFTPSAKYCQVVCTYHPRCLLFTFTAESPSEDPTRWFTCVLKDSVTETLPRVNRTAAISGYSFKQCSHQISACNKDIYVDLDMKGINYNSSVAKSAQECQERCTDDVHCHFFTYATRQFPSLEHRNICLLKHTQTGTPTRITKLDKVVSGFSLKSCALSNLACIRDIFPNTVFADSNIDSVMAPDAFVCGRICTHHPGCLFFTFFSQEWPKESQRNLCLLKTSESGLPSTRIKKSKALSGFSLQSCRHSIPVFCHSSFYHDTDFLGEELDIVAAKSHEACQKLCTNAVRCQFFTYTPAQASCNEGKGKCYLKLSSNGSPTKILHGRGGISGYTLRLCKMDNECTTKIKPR
Chain of KLK1 (P06870 25-262, species assumed): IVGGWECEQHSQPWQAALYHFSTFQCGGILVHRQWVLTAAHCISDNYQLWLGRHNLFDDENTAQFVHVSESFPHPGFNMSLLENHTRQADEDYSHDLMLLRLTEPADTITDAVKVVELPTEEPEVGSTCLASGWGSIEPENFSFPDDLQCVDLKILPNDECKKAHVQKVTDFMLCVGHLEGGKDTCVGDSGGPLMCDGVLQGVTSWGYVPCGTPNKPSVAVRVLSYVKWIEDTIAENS

IC50 (FXIa; values given in µM) [µM]	IC50 (plasma kallikrein (PKa) [1]) [nM]	IC50 (plasma kallikrein (PKa) [2]; [3]) [nM]	IC50 (KLK1; values given in µM) [µM]	IC50 (FXIa; values in nM) [µM]	IC50 (KLK1; values in nM) [µM]	Structure (SMILES)	IC50 (plasma kallikrein (PKa) [2]; [4]) [nM]
> 10	56.3	2.21	> 10			N#Cc1cccc([C@@H](NCC2CC2)c2ccc(F)c(NC(=O)c3cc(C(F)(F)F)nn3-c3cccc(CN)c3)c2)c1 [Berotralstat, reference compound]	
> 10	7.6	0.178	> 10			Cc1cc(N)nc(C)c1CNC(=O)c1cn(Cc2ccc(Cn3ccccc3=O)cc2)nn1 [Compound 1, N-((6-amino-2,4-dimethylpyridin-3-yl)methyl)-1-(4-((2-oxopyridin-1(2H)-yl)methyl)benzyl)-1H-1,2,3-triazole-4-carboxamide]	
> 10	6.8	0.517	> 10			COCc1nn(Cc2ccc(Cn3ccccc3=O)cc2)cc1C(=O)NCc1c(C)cc(N)nc1C [Compound 2, N-((6-amino-2,4-dimethylpyridin-3-yl)methyl)-3-(methoxymethyl)-1-(4-((2-oxopyridin-1(2H)-yl)methyl)benzyl)-1H-pyrazole-4-carboxamide]	
> 10	13.3	0.155	> 10			Cc1cc(N)nc(C)c1CNC(=O)c1nn(Cc2ccc(Cn3ccccc3=O)cc2)cc1C1CCCO1 (stereo not shown) [Compound 4, N-((6-amino-2,4-dimethylpyridin-3-yl)methyl)-1-(4-((2-oxopyridin-1(2H)-yl)methyl)benzyl)-4-(tetrahydrofuran-2-yl)-1H-pyrazole-3-carboxamide]	
	6.08	0.03		> 0.5	> 0.5	Cc1cc(N)nc(C)c1CNC(=O)c1ncn(Cc2ccc(Cn3ccccc3=O)cc2)n1 [Compound 11, N-((6-amino-2,4-dimethylpyridin-3-yl)methyl)-1-(4-((2-oxopyridin-1(2H)-yl)methyl)benzyl)-1H-1,2,4-triazole-3-carboxamide]	
	2.15	< 0.05				N#Cc1cc(N2CC3C(C2)C3(F)F)ccc1Cn1cc(C(=O)NCc2ccc(C(=N)N)cc2)cn1 (stereo not shown) [Compound 40]	
> 10		2.23	> 10			Cn1ccc2cnc(CNC(=O)c3cnn(Cc4ccc(Cn5ccccc5=O)cc4)c3)c(F)c21 [Compound 356]	
> 10		1.9	> 10			O=C(NCc1ncc2cc[nH]c2c1F)c1cn(Cc2ccc(Cn3ccccc3=O)cc2)nc1C(F)(F)F [Compound 357]	
> 10		0.09	> 10			COCc1nn(Cc2ccc(Cn3ccccc3=O)cc2)cc1C(=O)NCc1ccc(C(=N)N)nc1 [Compound 361]	
> 10		2.57	> 10			O=C(NCc1ncc2cc[nH]c2c1F)c1cnn(Cc2ccc(Cn3ccccc3=O)cc2)c1 [Compound 362, N-((7-fluoro-1H-pyrrolo[3,2-c]pyridin-6-yl)methyl)-1-(4-((2-oxopyridin-1(2H)-yl)methyl)benzyl)-1H-pyrazole-4-carboxamide]	
> 10		2.14	> 10			COCc1nn(Cc2ccc(Cn3ccccc3=O)cc2)cc1C(=O)NCc1ncc2ccn(C)c2c1F [Compound 363]	
> 10		2.06	> 10			COCc1nn(Cc2ccc(Cn3ccccc3=O)cc2)cc1C(=O)NCc1ncc2cc[nH]c2c1F [Compound 364]	
> 10		1.87	> 10			N=C(N)c1ccc(CNC(=O)c2cnn(Cc3cc(F)c(OC4CC4)c(F)c3)c2)cc1 [Compound 365]	
> 10		0.07	> 10			Cc1cc(C)n(Cc2ccc(Cn3cc(C(=O)NCc4ccc(C(=N)N)cc4)cn3)cc2)n1 [Compound 366]	
> 10		0.19	> 10			N=C(N)c1ccc(CNC(=O)c2cnn(Cc3c(F)cc(N4CC5C(C4)C5(F)F)cc3F)c2)cc1 (stereo not shown) [Compound 368]	
> 10		10.2	> 10			Cn1cc(F)c2cnc(CNC(=O)c3cnn(Cc4ccc(Cn5ccccc5=O)cc4)c3)c(F)c21 [Compound 370]	
> 10		> 100	> 10			COc1cc(Cn2cc(C(=O)NCc3ccc(C(=N)N)cc3)cn2)cc(OC)c1C(=O)C1CC1 [Compound 371]	
> 10		0.85	> 10			N=C(N)c1ccc(CNC(=O)c2cnn(Cc3cc(Cl)c(CC4CC4)c(Cl)c3)c2)cc1 [Compound 372]	
> 10		0.56	> 10			N=C(N)c1ccc(CNC(=O)c2cnn(Cc3ccc(CC4CC4)nc3)c2)cc1 [Compound 373]	
> 10		0.06	> 10			N=C(N)c1ccc(CNC(=O)c2cnn(Cc3cnc(N4CC5C(C4)C5(F)F)c(F)c3)c2)cc1 (stereo not shown) [Compound 374]	

IC50 (FXIa; values given in µM) [µM]	IC50 (plasma kallikrein (PKa) [1]) [nM]	IC50 (plasma kallikrein (PKa) [2]; [3]) [nM]	IC50 (KLK1; values given in µM) [µM]	IC50 (FXIa; values in nM) [µM]	IC50 (KLK1; values in nM) [µM]	Structure (SMILES)	IC50 (plasma kallikrein (PKa) [2]; [4]) [nM]
> 10		0.85	> 10			COc1cc(Cn2cc(C(=O)NCc3ccc(C(=N)N)cc3)cn2)cc(OC)c1CC1CC1 [Compound 375]	
> 10		1.42	> 10			Cn1cnc2cnc(CNC(=O)c3cnn(Cc4ccc(Cn5ccccc5=O)cc4)c3)c(F)c21 [Compound 377]	
> 10		1.41	> 10			Cn1ccc2cnc(CNC(=O)c3cn(Cc4ccc(Cn5ccccc5=O)cc4)nc3C(F)(F)F)c(F)c21 [Compound 378]	
> 10		0.27	> 10			N=C(N)c1ccc(CNC(=O)c2cnn(Cc3cc(F)c(CC4CC4)c(F)c3)c2)cc1 [Compound 380]	
> 10		0.03	> 10			Cc1cc(Cn2cc(C(=O)NCc3ccc(C(=N)N)cc3)cn2)cc(C)c1CC1CC1 [Compound 381]	
> 10		0.15	> 10			N=C(N)c1ccc(CNC(=O)c2cnn(Cc3ccc(N4CC5C(C4)C5(F)F)c(C(F)(F)F)c3)c2)cc1 (stereo not shown) [Compound 382]	
> 10			> 10			CN1CCc2cnc(CNC(=O)c3cnn(Cc4ccc(Cn5ccccc5=O)cc4)c3)c(F)c21 [Compound 383]	1.39
> 10		2.17	> 10			O=C(NCc1ncc2c(c1F)NCC2)c1cnn(Cc2ccc(Cn3ccccc3=O)cc2)c1 [Compound 384]	
> 10		0.88	> 10			N=C(N)c1ccc(CNC(=O)c2cnn(Cc3ccc(OCC4CC4)c(C(F)(F)F)c3)c2)cc1 [Compound 385]	
> 10		1.68	> 10			N=C(N)c1ccc(CNC(=O)c2cnn(Cc3ccc(OC4CCCC4)c(C(F)(F)F)c3)c2)cc1 [Compound 386]	
> 10		0.08	> 10			N=C(N)c1ccc(CNC(=O)c2cnn(Cc3ccc(N4CCC(F)(F)CC4)c(C(F)(F)F)c3)c2)cc1 [Compound 387]	
> 10		0.18	> 10			N=C(N)c1ccc(CNC(=O)c2cnn(Cc3ccc(N4CCOCC4)c(C(F)(F)F)c3)c2)cc1 [Compound 388]	
> 10		1.45	> 10			CN1CCc2cnc(CNC(=O)c3cn(Cc4ccc(Cn5ccccc5=O)cc4)nc3C(F)(F)F)c(F)c21 [Compound 389]	
> 10		2.02	> 10			O=C(NCc1ncc2c(c1F)NCC2)c1cn(Cc2ccc(Cn3ccccc3=O)cc2)nc1C(F)(F)F [Compound 390]	
> 10		1.4	> 10			COCc1nn(Cc2ccc(Cn3ccccc3=O)cc2)cc1C(=O)NCc1ncc2c(c1F)N(C)CC2 [Compound 391]	
> 10		2.44	> 10			COCc1nn(Cc2ccc(Cn3ccccc3=O)cc2)cc1C(=O)NCc1ncc2c(c1F)NCC2 [Compound 392]	
> 10		1.05	> 10			N=C(N)c1ccc(CNC(=O)c2cnn(Cc3cc(Cl)c(C(=O)C4CC4)c(Cl)c3)c2)cc1 [Compound 393]	
> 10		1.56	> 10			N=C(N)c1ccc(CNC(=O)c2cnn(Cc3cc(F)c(C(=O)C4CC4)c(F)c3)c2)cc1 [Compound 394]	
> 10		1.68	> 10			O=C(NCc1ncc2c(c1F)OCC2)c1cnn(Cc2ccc(Cn3ccccc3=O)cc2)c1 [Compound 395]	
> 10		2.1	> 10			COCc1nn(Cc2ccc(Cn3ccccc3=O)cc2)cc1C(=O)NCc1ncc2c(c1F)OCC2 [Compound 396]	

Structure (SMILES)	IC50 (FXIa; values given in µM) [µM]	IC50 (plasma kallikrein (PKa) [1]) [nM]	IC50 (plasma kallikrein (PKa) [2]; [3]) [nM]	IC50 (KLK1; values given in µM) [µM]	IC50 (FXIa; values in nM) [µM]	IC50 (KLK1; values in nM) [µM]	IC50 (plasma kallikrein (PKa) [2]; [4]) [nM]
N=C(N)c1ccc(CNC(=O)c2cnn(Cc3ccc(OC4CC4)c(C(F)(F)F)c3)c2)cc1 [Compound 379]	> 10			> 10			0.97
